Experimental data from US11701355B2, “Levosimendan for treating pulmonary hypertension with heart failure with preserved ejection fraction (PH-HFpEF)” (Tenax Therapeutics, Inc., priority 2019, dated 2023).
Where “and” joins values, the source holds several entries; their conditions need not be identical. Identical values can stand only once.

Tests used:
PH-HFpEF patients = experiment: HELP Study open-label lead-in phase: 24-hour levosimendan infusion, right heart catheterization at rest and 25 watt exercise; format: in vivo, human
Source text: Enrolled PH-HFpEF subjects receive a lead-in 24-hour levosimendan infusion to determine their hemodynamic response and eligibility for the double-blind phase of the study. A total of 36 “responders” are randomized in the double-blind, placebo-controlled phase. “Responders” are identified as those subjects with a ≥4 mmHg reduction in PCWP during bicycle exercise (25 watts) and no more than a 10% decrease in cardiac index between the baseline measurements and repeated measurements following the initial infusion.
Study drug is administered via i.v. infusion over 24 hours weekly through Week 5 via a PICC line. Infusions (Week 2-5) are done in the subject's home by a study nurse. Patients return to the study site for a visit between the Week 3 and Week 4 infusions for assessment of subject safety/response and need for dose adjustment. Each subject is to return on Week 6 for assessment of efficacy and safety on study drug. A right heart catheter will be inserted to obtain hemodynamic measurements at rest and exercise at baseline, the following day after the lead-in 24-hour infusion, and during Week 6.
During the Lead-in phase, levosimendan, supplied as a concentrated solution (2.5 mg/mL), is mixed with diluent and administered intravenously at 0.10 μg/kg/min for 24 hours +/−30 min.
Visits during the Lead-In phase of the trial require a subject to be hospitalized for the entire infusion period, which at a minimum will last 24 hours. Once the infusion is complete, hemodynamic measurements are collected to ensure subject eligibility. Visits for Week 2 through Week 6 are calculated based on the date of the Lead-in infusion.
During the Lead-in Infusion (Day 0) the following procedures are performed: Measure vital signs (BP, PR, respiratory rate, temperature), venous sheath placement for right heart catheterization (The sheath will remain following the baseline study, and the patient is hospitalized where they receive the 24-hour levosimendan infusion (preferably through the venous sheath). The sheath is then used for access for the right heart catheterization study following the 24-hour levosimendan infusion, and then removed), right heart catheterization measurements: baseline (prior to levosimendan infusion) and post 24-hour infusion to establish qualifying baseline hemodynamics at rest and exercise and to establish qualifying response to levosimendan during exercise, assess adverse events, assess concomitant medications and/or procedures, pharmacokinetic sampling (to be taken at the end of infusion: 24+/−2 hours), genotyping sampling (to be taken at the end of infusion: 24+/−2 hours). […] A PICC line is placed in patients that meet eligibility criteria and who are randomized into the Double-Blind phase of the study.

[1] = test system: phosphodiesterase-3 (PDE3); settings: in vitro; cited from earlier work
[2] = parent drug, intravenous infusion; cited from earlier work
HFrEF patients = settings: compared with placebo; cited from earlier work
[3] = average of 30 patients, 25 watts exercise
[4] = average of 30 patients, rest legs down
[5] = first 30 randomized patients, 25 watts exercise
[6] = first 30 randomized patients, rest
[7] = individual patients, after 24-hour lead-in infusion, 25 watts exercise
[8] = individual patients, after 24-hour lead-in infusion, rest legs down
[9] = individual patients, post vs pre, 25 watts exercise
[10] = individual patients, post vs pre, rest legs down

Compound: C[C@@H]1CC(=O)NN=C1c1ccc(NN=C(C#N)C#N)cc1 [levosimendan, Levosimendan]
- patients who exhibited a ≥4 mmHg decrease of PCWP (PH-HFpEF patients; acute (24 hours) open-label levosimendan, n=44): 85%
- Exercise CO Change Avg (PH-HFpEF patients; [3]): 0.6 L/min
- PCWP Exercise Change Avg (PH-HFpEF patients; [3]): −7.53 mmHg
- RAP (Exercise) Change Avg (PH-HFpEF patients; [3]): −4.97 mmHg
- mPAP Exercise Change Avg (PH-HFpEF patients; [3]): −5.1 mmHg
- PCWP-Rest (down) Change Avg (PH-HFpEF patients; [4]): −5.800 mmHg
- RAP (Rest-down) Change Avg (PH-HFpEF patients; [4]): −4.83 mmHg
- Rest (down) CO Change Avg (PH-HFpEF patients; [4]): 0.33 L/min
- mPAP Rest (down) Change Avg (PH-HFpEF patients; [4]): −5.4 mmHg
- increase of cardiac output during 25 watts of exercise, average (PH-HFpEF patients; [5]): 0.60 L/min
- reduction of mean pulmonary arterial pressure during 25 watts of exercise, average (PH-HFpEF patients; [5]): 5.1 mmHg
- reduction of pulmonary capillary wedge pressure during 25 watts of exercise, average (PH-HFpEF patients; [5]): 7.53 mmHg
- reduction of right atrial pressure during 25 watts of exercise, average (PH-HFpEF patients; [5]): 4.97 mmHg
- increase of cardiac output during rest, average (PH-HFpEF patients; [6]): 0.33 L/min
- reduction of mean pulmonary arterial pressure during rest, average (PH-HFpEF patients; [6]): 5.4 mmHg
- reduction of pulmonary capillary wedge pressure during rest, average (PH-HFpEF patients; [6]): 5.8 mmHg
- reduction of right atrial pressure during rest, average (PH-HFpEF patients; [6]): 4.83 mmHg
- pulmonary capillary wedge pressure during rest after levosimendan, average (PH-HFpEF patients; first 30 randomized patients, rest, baseline 23.4): 17.6 mmHg
- cardiac output during rest after levosimendan, average (PH-HFpEF patients; first 30 randomized patients, baseline 5.1): 5.5 L/min
- cardiac output during 25 watts of exercise after levosimendan, average (PH-HFpEF patients; first 30 randomized patients, baseline 6.7): 7.4 L/min
- right atrial pressure during rest after levosimendan, average (PH-HFpEF patients; first 30 randomized patients, baseline 16.2): 11.3 mmHg
- right atrial pressure during 25 watts of exercise after levosimendan, average (PH-HFpEF patients; first 30 randomized patients, baseline 27.9): 23.0 mmHg
- pulmonary capillary wedge pressure during 25 watts of exercise after levosimendan, average (PH-HFpEF patients; first 30 randomized patients, baseline 33.2): 25.7 mmHg
- mean pulmonary arterial pressure during rest after levosimendan, average (PH-HFpEF patients; first 30 randomized patients, baseline 42.4): 37.0 mmHg
- mean pulmonary arterial pressure during 25 watts of exercise after levosimendan, average (PH-HFpEF patients; first 30 randomized patients, baseline 58.3): 53.3 mmHg
- Exercise CO Post (PH-HFpEF patients; [7]): 3.55 l/min and 3.25 l/min and 5.5 l/min and 5.05 l/min and 9.1 l/min (2×) and 4.68 l/min and 5.725 l/min and 5.9 l/min and 9 l/min and 7.65 l/min and 11.3 l/min and 7.9 l/min and 7.1 l/min and 12.8 l/min and 5.2 l/min and 8.0 l/min and 10.5 l/min and 4.2 l/min and 13.9 l/min and 7.2 l/min and 10.6 l/min and 11.1 l/min and 5.4 l/min and 6.5 l/min (2×) and 4.23 l/min and 6.93 l/min and 6.05 l/min and 7.7 l/min
- PCWP Exercise Post (PH-HFpEF patients; [7]): 27 mmHg and 33 mmHg (2×) and 23 mmHg (2×) and 42 mmHg and 35 mmHg and 20 mmHg (2×) and 15 mmHg (2×) and 31 mmHg (2×) and 18 mmHg (4×) and 28 mmHg (4×) and 30 mmHg and 22 mmHg and 24 mmHg and 19 mmHg (2×) and 25 mmHg and 29 mmHg and 34 mmHg and 37 mmHg
- RAP (Exercise) Post (PH-HFpEF patients; [7]): 34 mmHg and 17 mmHg (2×) and 10 mmHg and 20 mmHg (4×) and 16 mmHg (3×) and 24 mmHg and 36 mmHg and 18 mmHg and 12 mmHg (3×) and 22 mmHg and 29 mmHg (2×) and 25 mmHg (3×) and 28 mmHg (2×) and 19 mmHg and 38 mmHg (2×) and 37 mmHg and 26 mmHg
- mPAP Exercise Post (PH-HFpEF patients; [7]): 52 mmHg (4×) and 47 mmHg (3×) and 67 mmHg and 48 mmHg and 40 mmHg and 80 mmHg and 57 mmHg and 38 mmHg (3×) and 35 mmHg and 50 mmHg and 55 mmHg and 51 mmHg (2×) and 58 mmHg and 27 mmHg and 60 mmHg and 66 mmHg and 36 mmHg and 81 mmHg and 68 mmHg (2×) and 75 mmHg and 62 mmHg
- RAP (Rest-down) Post (PH-HFpEF patients; [8]): 17 mmHg and 5 mmHg and 4 mmHg and 12 mmHg (6×) and 7 mmHg and 18 mmHg (2×) and 3 mmHg and 8 mmHg (2×) and 9 mmHg (2×) and 13 mmHg (2×) and 10 mmHg (3×) and 11 mmHg (2×) and 15 mmHg (2×) and 1 mmHg and 14 mmHg and 19 mmHg and 20 mmHg
- Rest (down) CO Post-Levo (PH-HFpEF patients; [8]): 3.0 l/min and 3.2 l/min and 4.5 l/min and 3.8 l/min (2×) and 6.9 l/min and 6.2 l/min and 4.2 l/min and 5.2 l/min and 6.5 l/min (2×) and 5.3 l/min (3×) and 5.6 l/min and 7.6 l/min and 4.1 l/min and 6.0 l/min and 8.6 l/min and 5.9 l/min and 4.3 l/min and 6.4 l/min and 4.0 l/min and 11.0 l/min and 4.7 l/min and 4.4 l/min and 3.9 l/min and 5.4 l/min and 5.8 l/min and 7.0 l/min
- mPAP Rest (down) Post-Levo (PH-HFpEF patients; [8]): 45 mmHg and 27 mmHg and 35 mmHg (2×) and 25 mmHg and 21 mmHg (2×) and 65 mmHg and 38 mmHg and 28 mmHg (2×) and 37 mmHg (2×) and 30 mmHg (2×) and 42 mmHg and 41 mmHg and 26 mmHg (2×) and 46 mmHg and 24 mmHg (2×) and 29 mmHg and 34 mmHg and 32 mmHg and 62 mmHg and 57 mmHg (2×) and 59 mmHg and 49 mmHg
- PCWP-Rest (down) Post-Levo (PH-HFpEF patients; individual patients, n=30 responders, after 24-hour lead-in infusion, rest legs down): 17 mmHg (6×) and 19 mmHg (2×) and 12 mmHg (2×) and 21 mmHg (3×) and 18 mmHg and 23 mmHg (2×) and 14 mmHg (3×) and 16 mmHg (2×) and 29 mmHg and 8 mmHg (2×) and 22 mmHg and 20 mmHg (2×) and 15 mmHg and 13 mmHg and 27 mmHg
- PCWP-Rest (down) Change (PH-HFpEF patients; individual patients, post vs pre levosimendan lead-in infusion, rest legs down): −3 mmHg (5×) and −8 mmHg and −11 mmHg (2×) and 1 mmHg and −12 mmHg (2×) and 3 mmHg and −6 mmHg (2×) and −18 mmHg and −13 mmHg (2×) and −2 mmHg (3×) and −5 mmHg (2×) and 2 mmHg and 0 mmHg and −10 mmHg and −9 mmHg and −14 mmHg and −1 mmHg (2×) and −4 mmHg
- Exercise CO Change (PH-HFpEF patients; [9]): 0.4 l/min (2×) and 0.0 l/min (2×) and 0.8 l/min (3×) and −0.3 l/min (2×) and −0.2 l/min (2×) and 0.3 l/min and 1.7 l/min (2×) and 0.2 l/min (2×) and 1.8 l/min (2×) and 1.9 l/min and −1.7 l/min and 4.8 l/min and 1.5 l/min and 0.1 l/min and −0.5 l/min (2×) and −1.0 l/min and 0.9 l/min and 1.0 l/min and 1.4 l/min and 1.3 l/min
- PCWP Exercise Change (PH-HFpEF patients; [9]): −8 mmHg (3×) and −7 mmHg (4×) and −13 mmHg and −5 mmHg (7×) and −10 mmHg and −4 mmHg (3×) and −22 mmHg and −14 mmHg (2×) and −6 mmHg (6×) and −9 mmHg (2×)
- RAP (Exercise) Change (PH-HFpEF patients; [9]): −8 mmHg (5×) and −4 mmHg and −3 mmHg (3×) and −6 mmHg (2×) and −12 mmHg and −11 mmHg and 1 mmHg (3×) and −18 mmHg and −9 mmHg and −5 mmHg (2×) and −14 mmHg and −2 mmHg (3×) and 3 mmHg and 6 mmHg and 0 mmHg (2×) and −15 mmHg and −1 mmHg
- mPAP Exercise Change (PH-HFpEF patients; [9]): −7 mmHg and −3 mmHg (4×) and −15 mmHg (2×) and −5 mmHg (2×) and 2 mmHg and −22 mmHg and −13 mmHg (2×) and 4 mmHg (2×) and −8 mmHg (2×) and −9 mmHg and 12 mmHg and −4 mmHg (2×) and −2 mmHg and 1 mmHg (3×) and 6 mmHg and −11 mmHg and −12 mmHg (2×) and −6 mmHg
- RAP (Rest-down) Change (PH-HFpEF patients; [10]): −3 mmHg (3×) and −4 mmHg (5×) and 0 mmHg (3×) and −5 mmHg (6×) and 1 mmHg and −23 mmHg and −1 mmHg and −7 mmHg (3×) and −6 mmHg (2×) and −2 mmHg (2×) and −9 mmHg (2×) and −8 mmHg
- Rest (down) CO Change (PH-HFpEF patients; [10]): 0.17 l/min and 0.23 l/min (2×) and 0.27 l/min and 0.43 l/min and 1.06 l/min (2×) and 0.05 l/min and 0.62 l/min and 1.40 l/min and −0.07 l/min and 0.67 l/min and 2.03 l/min and −0.97 l/min and 1.03 l/min and 1.60 l/min and 0.00 l/min and 0.20 l/min and −0.53 l/min (2×) and 0.07 l/min and −0.47 l/min and 0.13 l/min and −1.07 l/min and −1.87 l/min and −0.30 l/min and 0.85 l/min and 1.50 l/min and 1.20 l/min and 0.87 l/min
- mPAP Rest (down) Change (PH-HFpEF patients; [10]): −5 mmHg (2×) and −8 mmHg (2×) and −11 mmHg (2×) and 1 mmHg and −10 mmHg (2×) and 5 mmHg (3×) and −2 mmHg (2×) and −22 mmHg and −12 mmHg (2×) and 2 mmHg (2×) and −9 mmHg (4×) and 3 mmHg and −6 mmHg and −4 mmHg and −13 mmHg and −14 mmHg and 6 mmHg and 0 mmHg
- PDE3/PDE4 inhibition ratio [1]: 10,000
- half-life [2]: approximately 1 hour
- cardiac output, stroke volume, ejection fraction, and heart rate (HFrEF patients): increased
- systolic blood pressure, diastolic blood pressure, pulmonary capillary wedge pressure, right atrial pressure, and peripheral vascular resistance (HFrEF patients): reduced
